In brackets after ≈: the same amount, converted by molar mass. Activity calls are given as the source filed them. The rule behind the calls is not given here.
Columns and labels:
Candida tropicalis [1] = experiment: Antifungal activity against Candida tropicalis FMR 9726 infected in immunosuppressed OF1 mouse assessed as reduction in fungal tissue burden in mouse kidney at 25 mg/kg, po bid for 5 days; type: functional, organism-based; parameters: dose 25 mg/kg
Candida tropicalis [2] = experiment: Antifungal activity against Candida tropicalis FMR 8895 infected in immunosuppressed OF1 mouse assessed as prolongation of mouse survival at 50 mg/kg, po qd for 5 days; type: functional, organism-based; parameters: dose 50 mg/kg
Candida tropicalis [3] = experiment: Antifungal activity against Candida tropicalis FMR 9727 infected in immunosuppressed OF1 mouse assessed as reduction in fungal tissue burden in mouse kidney at 50 mg/kg, po qd for 5 days; type: functional, organism-based; parameters: dose 50 mg/kg
Candida tropicalis [4] = experiment: Antifungal activity against Candida tropicalis FMR 10237 infected in immunosuppressed OF1 mouse assessed as reduction in fungal tissue burden in mouse spleen at 50 mg/kg, po qd for 5 days; type: functional, organism-based; parameters: dose 50 mg/kg
Candida tropicalis [5] = experiment: Antifungal activity against Candida tropicalis FMR 10240 assessed as inhibition of growth by broth dilution method; type: functional
Candida tropicalis [6] = experiment: Antifungal activity against Candida tropicalis FMR 8897 assessed as compound concentration causing =>99% reduction in microbial growth; type: functional
Candida tropicalis [7] = experiment: Antifungal activity against Candida tropicalis FMR 9726 assessed as compound concentration causing =>99% reduction in microbial growth; type: functional
Candida tropicalis [8] = experiment: Antifungal activity against Candida tropicalis FMR 9727 infected in immunosuppressed OF1 mouse assessed as reduction in fungal tissue burden in mouse kidney at 25 mg/kg, po bid for 5 days; type: functional, organism-based; parameters: dose 25 mg/kg
Candida tropicalis [9] = experiment: Antifungal activity against Candida tropicalis FMR 9727 infected in immunosuppressed OF1 mouse assessed as reduction in fungal tissue burden in mouse spleen at 25 mg/kg, po bid for 5 days; type: functional, organism-based; parameters: dose 25 mg/kg
Candida tropicalis [10] = experiment: Antifungal activity against Candida tropicalis FMR 8895 assessed as inhibition of growth by broth dilution method; type: functional
Candida tropicalis [11] = experiment: Antifungal activity against Candida tropicalis FMR 10239 infected in immunosuppressed OF1 mouse assessed as reduction in fungal tissue burden in mouse spleen at 25 mg/kg, po bid for 5 days; type: functional, organism-based; parameters: dose 25 mg/kg
Candida tropicalis [12] = experiment: Antifungal activity against Candida tropicalis FMR 9726 infected in immunosuppressed OF1 mouse assessed as prolongation of mouse survival at 50 mg/kg, po qd for 5 days; type: functional, organism-based; parameters: dose 50 mg/kg
Candida tropicalis [13] = experiment: Antifungal activity against Candida tropicalis FMR 10237 infected in immunosuppressed OF1 mouse assessed as reduction in fungal tissue burden in mouse kidney at 50 mg/kg, po qd for 5 days; type: functional, organism-based; parameters: dose 50 mg/kg
Candida tropicalis [14] = experiment: Antifungal activity against Candida tropicalis FMR 10235 assessed as inhibition of growth by broth dilution method; type: functional
Candida tropicalis [15] = experiment: Antifungal activity against Candida tropicalis FMR 10237 infected in immunosuppressed OF1 mouse assessed as reduction in fungal tissue burden in mouse spleen at 25 mg/kg, po bid for 5 days; type: functional, organism-based; parameters: dose 25 mg/kg
Candida tropicalis [16] = experiment: Antifungal activity against Candida tropicalis FMR 10239 infected in immunosuppressed OF1 mouse assessed as reduction in fungal tissue burden in mouse kidney at 25 mg/kg, po bid for 5 dayss; type: functional, organism-based; parameters: dose 25 mg/kg
Candida tropicalis [17] = experiment: Antifungal activity against Candida tropicalis FMR 9727 assessed as compound concentration causing =>99% reduction in microbial growth; type: functional
Candida tropicalis [18] = experiment: Antifungal activity against Candida tropicalis FMR 8896 assessed as inhibition of growth by broth dilution method; type: functional
Candida tropicalis [19] = experiment: Antifungal activity against Candida tropicalis FMR 8898 assessed as compound concentration causing =>99% reduction in microbial growth; type: functional
Candida tropicalis [20] = experiment: Antifungal activity against Candida tropicalis FMR 8897 assessed as inhibition of growth by broth dilution method; type: functional
Candida tropicalis [21] = experiment: Antifungal activity against Candida tropicalis FMR 8895 assessed as compound concentration causing =>99% reduction in microbial growth; type: functional
Candida tropicalis [22] = experiment: Antifungal activity against Candida tropicalis FMR 9727 assessed as inhibition of growth by broth dilution method; type: functional
Candida tropicalis [23] = experiment: Antifungal activity against Candida tropicalis FMR 10234 assessed as inhibition of growth by broth dilution method; type: functional
Candida tropicalis [24] = experiment: Antifungal activity against Candida tropicalis FMR 8895 infected in immunosuppressed OF1 mouse assessed as prolongation of mouse survival at 25 mg/kg, po bid for 5 days; type: functional, organism-based; parameters: dose 25 mg/kg
Candida tropicalis [25] = experiment: Antifungal activity against Candida tropicalis FMR 10237 infected in immunosuppressed OF1 mouse assessed as prolongation of mouse survival at 50 mg/kg, po qd for 5 days; type: functional, organism-based; parameters: dose 50 mg/kg
Candida tropicalis [26] = experiment: Antifungal activity against Candida tropicalis FMR 10234 assessed as compound concentration causing =>99% reduction in microbial growth; type: functional
Candida tropicalis [27] = experiment: Antifungal activity against Candida tropicalis FMR 10238 assessed as inhibition of growth by broth dilution method; type: functional
Candida tropicalis [28] = experiment: Antifungal activity against Candida tropicalis FMR 8896 assessed as compound concentration causing =>99% reduction in microbial growth; type: functional
Candida tropicalis [29] = experiment: Antifungal activity against Candida tropicalis FMR 10231 assessed as compound concentration causing =>99% reduction in microbial growth; type: functional
Candida tropicalis [30] = experiment: Antifungal activity against Candida tropicalis FMR 9727 infected in immunosuppressed OF1 mouse assessed as prolongation of mouse survival at 50 mg/kg, po qd for 5 days; type: functional, organism-based; parameters: dose 50 mg/kg
Candida tropicalis [31] = experiment: Antifungal activity against Candida tropicalis FMR 10231 assessed as inhibition of growth by broth dilution method; type: functional
Candida tropicalis [32] = experiment: Antifungal activity against Candida tropicalis FMR 9726 assessed as inhibition of growth by broth dilution method; type: functional

For CC[C@@H]([C@H](C)O)n1ncn(-c2ccc(N3CCN(c4ccc(OC[C@@H]5CO[C@@](Cn6cncn6)(c6ccc(F)cc6F)C5)cc4)CC3)cc2)c1=O [POSACONAZOLE], the Activity (Candida tropicalis [1]) was “Active”, the Activity (Candida tropicalis [2]) was “Active” and the Activity (Candida tropicalis [3]) was “Active”. For the same molecule, the Activity (Candida tropicalis [4]) was “Active”, the MIC50 (Candida tropicalis [5]) was less than 0.03 µg/mL and the MFC (Candida tropicalis [6]) was greater than 16 µg/mL. The MFC (Candida tropicalis [7]) was greater than 16 µg/mL, the Activity (Candida tropicalis [8]) was “Active” and the Activity (Candida tropicalis [9]) was “Active”. For the same molecule, the MIC50 (Candida tropicalis [10]) was greater than 16 µg/mL, the Activity (Candida tropicalis [11]) was “Active” and the Activity (Candida tropicalis [12]) was “Active”. For the same molecule, the Activity (Candida tropicalis [13]) was “Active”, the MIC50 (Candida tropicalis [14]) was 0.125 µg/mL (≈ 0.178 µM) and the Activity (Candida tropicalis [15]) was “Active”. The Activity (Candida tropicalis [16]) was “Active”, the MFC (Candida tropicalis [17]) was greater than 16 µg/mL and the MIC50 (Candida tropicalis [18]) was 0.125 µg/mL (≈ 0.178 µM). It also gave an MFC (Candida tropicalis [19]) greater than 16 µg/mL, an MIC50 (Candida tropicalis [20]) of 0.06 µg/mL (≈ 0.0856 µM) and an MFC (Candida tropicalis [21]) greater than 16 µg/mL. For the same molecule, the MIC50 (Candida tropicalis [22]) was less than 0.03 µg/mL, the MIC50 (Candida tropicalis [23]) was 0.06 µg/mL (≈ 0.0856 µM) and the Activity (Candida tropicalis [24]) was “Active”. The Activity (Candida tropicalis [25]) was “Active”, the MFC (Candida tropicalis [26]) was greater than 16 µg/mL and the MIC50 (Candida tropicalis [27]) was 0.06 µg/mL (≈ 0.0856 µM). The MFC (Candida tropicalis [28]) was greater than 16 µg/mL, the MFC (Candida tropicalis [29]) was greater than 16 µg/mL and the Activity (Candida tropicalis [30]) was “Active”. The MIC50 (Candida tropicalis [31]) was 0.06 µg/mL (≈ 0.0856 µM) and the MIC50 (Candida tropicalis [32]) was 0.5 µg/mL (≈ 0.713 µM).

Reference: ChEMBL document CHEMBL1212752, “Efficacy of posaconazole in a murine disseminated infection by Candida tropicalis” (2010)
